Patent EP4635969A1, “NOVEL GLUCOCORTICOID, METHOD FOR PREPARING SAME, AND USE THEREOF” (Tianjin Pharmaceutical Biotechnology Co., Ltd., priority 2022, dated 2024)

Key:
[1] = system: inflammatory cytokines IL-6 and IL-12; assay: Anti-asthma pharmacodynamic experiment: inflammatory cytokines in bronchoalveolar lavage fluid (ELISA); format: in vivo, female BALB/c mice; conditions: compared with the model group
Protocol: Pharmacological Example 4: Pharmacodynamic Experiment on Anti-Asthma
The suspensions were stored at room temperature protected from light until use.
Positive control drug: Budesonide Suspension for Inhalation (specification: 2 mL: 1 mg; AstraZeneca Inc.; Lot No. : 327392) was diluted with injection-grade sodium chloride solution to 0.3 mg/ml as the positive control drug, and stored at room temperature protected from light until use.
Sixty female BALB/c mice underwent a one-week adaptive feeding period. Ten mice were randomly selected as the blank control group, while 50 mice were selected to establish asthma models.
From days 21 to 23 after sensitization, the mice in the model group and drug administration group were exposed to a 30-minute aerosol challenge with 5% OVA, while the mice in the blank control group were exposed to normal saline aerosol for the same duration.
At the end of airway hyperresponsiveness testing in mice, the mice were euthanized by cervical dislocation and fixed on a dissection tray. The abdomens and thoracic cavities of the mice were opened, and the skin and excess tissues of the neck were excised to expose the trachea of the mice. A small incision was made transversely on the trachea with a small scissors. A pre-treated 1 mL syringe needle was inserted and fastened with surgical thread. A 1 mL syringe was used to slowly inject 0.5 mL of pre-chilled phosphate-buffered saline (PBS) into the lungs of the mice, followed by slow aspiration. Each mouse was lavaged once, and a total of approximately 0.4 ml of lavage fluid was collected. The bronchoalveolar lavage fluid was centrifuged at 3000 rpm for 5 min. After centrifugation, the supernatant was aliquoted, and the levels of inflammatory cytokines IL-6 and IL-12 in the bronchoalveolar lavage fluid were determined using ELISA kits.
(§1) Statistical analysis was performed using SPSS software. Measurement data were expressed as mean ± standard deviation. One-way ANOVA was used for intergroup comparisons. For data with homogeneous variance, LSD test was used; for data with heterogeneous variance, Dunnett-t test was used. A value of P < 0.05 was considered statistically significant.

[2] = system: IL-17; assay: Psoriasis experiment (imiquimod model): inflammatory cytokine in serum (ELISA); format: in vivo, mice; conditions: compared with the model group
[3] = system: psoriasis model mice; assay: Psoriasis experiment (imiquimod model): skin lesion (PASI) score; format: in vivo; conditions: compared with the model group
[4] = system: epidermal layer in rats; assay: Adverse reactions of continuous dermal administration: thickness of the epidermal layer (H&E sections); format: in vivo, SD rats; conditions: compared with the blank control group
Excerpt: Pharmacological Example 10: Experiment on Adverse Reactions of Continuous Dermal Administration in Rats
Animals: SD rats, SPF grade, with an equal number of males and females, weighing 230-250 g.
Animal grouping: After adaptive feeding, the rats were randomly divided into 4 groups. […] One day before administration, the backs of rats were shaved at an area of 5 cm × 6 cm. […] The rats in the blank control group were applied with the blank matrix of corresponding mass on their backs, twice a day for a consecutive week. Table 21. Animal grouping and drug administration dosages for the experiment on adverse reactions of continuous dermal administration in rats
To examine the effects of continuous administration of the test samples on the epidermal layer, the back skin tissues were stained with hematoxylin and eosin (H&E) (magnification ×40), and the thickness of the epidermal layer was quantitatively measured based on the H&E-stained sections.

[5] = Pharmacokinetic (PK) experiment in rats; format: in vivo, male SD rats; conditions: same experimental conditions
Protocol: Pharmacological Example 11. Pharmacokinetic (PK) Experiment in Rats
The solution was prepared before administration.
Animals: 6 male SD rats, SPF grade (Beijing Vital River Laboratory Animal Technology Co., Ltd.).
Animal grouping: The animals were weighed prior to administration, and the dosage was calculated based on body weight. The animals in the oral administration group were fasted overnight (10-14 hours) before administration, and food was reintroduced 4 hours post-administration. Table 23. Animal grouping and drug administration dosages for pharmacokinetic (PK) experiment in rats
Blood collection time points: Blood was collected from the jugular vein at 2 min, 5 min, 15 min, 30 min, 1 h, 2 h, 4 h, 8 h, and 24 h after administration. Approximately 0.25 mL of blood was collected for each sample, anticoagulated with heparin sodium, and then placed on ice immediately.
Plasma sample processing: Blood samples were placed on ice after collection and centrifuged to separate plasma within 1 hour (centrifugation conditions: 6000 rpm, 3 minutes, 2-8 °C ). Plasma samples were stored in a -80°C freezer before analysis.
Data processing: Pharmacokinetic parameters were calculated using Phoenix WinNonlin 8.2.0 based on the plasma drug concentration data at different time points.

[6] = target: T1, mineralocorticoid receptor (MR) (Homo sapiens, UniProt P08235); assay: Assay for agonist activity on mineralocorticoid receptor (luciferase reporter, HEK293 cells transfected with pBIND-MR plasmid); format: cell-based; conditions: for target selectivity: MR/GR and PR/GR, same experimental conditions; for Target selectivity MR/GR: ratio of EC50 values
T1 sequence (P08235 726-984): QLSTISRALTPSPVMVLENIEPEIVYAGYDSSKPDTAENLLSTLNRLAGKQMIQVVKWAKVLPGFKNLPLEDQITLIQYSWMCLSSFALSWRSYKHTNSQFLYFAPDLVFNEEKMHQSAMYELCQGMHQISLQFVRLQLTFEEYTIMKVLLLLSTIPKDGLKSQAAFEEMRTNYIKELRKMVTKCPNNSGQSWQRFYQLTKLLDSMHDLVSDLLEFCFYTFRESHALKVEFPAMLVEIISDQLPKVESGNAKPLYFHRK
Outline: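 HEK293 cells transiently transfected with pBIND-MR or pBIND-PR, seeded in phenol red-free DMEM with 5% charcoal-stripped serum. Compounds tested as 12-point 4-fold dilutions from 50 µM in duplicate, 0.1% DMSO blank. Luciferase luminescence read, EC50 by nonlinear fit.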

[7] = system: uveitis model rats; assay: Anti-uveitis pharmacodynamic experiment (LPS model): ocular pathological score; format: in vivo, male SD rats; conditions: for ocular abnormalities / ocular pathological score: compared with the model group
Protocol: Pharmacodynamic Experiment on Anti-Uveitis
Positive control drug: Fluorometholone Eye Drops (specification: 5 mL/5 mg; Santen Pharmaceutical (CHINA) Co., Ltd.; Lot No. : J20180068) was used as the positive control drug and stored at room temperature protected from light until use.
Fifty male SD rats underwent a one-week adaptive feeding period. […] Groups 2 to 5 were used to establish rat uveitis models by single subcutaneous injection of 1 mg/kg LPS (Salmonella; Sigma; Lot No. 0000164114) into the plantar tissue of the hindpaw. Salmonella endotoxin was dissolved in normal saline to prepare an injection solution at a concentration of 2 mg/mL, which was injected subcutaneously at 1 mg/kg into the plantar tissue of one paw of the rats. Group 1 was injected with an equal volume of normal saline.
At the end of the experiment, photos of the rats' eyes were taken using a slit-lamp microscope, and the differences in ocular lesions of rats among groups were compared and analyzed.
as §1

| Structure (SMILES) | Effects on inflammatory cytokines in bronchoalveolar lavage fluid of mice [1] | level of IL-17 / inflammatory cytokines in psoriasis model mice [2] | PASI scores [3] | thickness of the epidermal layer after continuous dermal administration [4] | pharmacokinetic properties (plasma clearance rate, systemic exposure) [5] | target selectivity [6] | ocular abnormalities / ocular pathological score [7] | EC50 [6] [µM] | Target selectivity MR/GR [6] | Ocular pathological score ([7]; 1 mg/mL, 40 µL/eye, 3 times a day for 2 days) |
| --- | --- | --- | --- | --- | --- | --- | --- | --- | --- | --- |
| C[C@]12C=CC(=O)C=C1[C@@H](F)C[C@H]1[C@@H]3C[C@H]4OC(c5ccc(CSC6CCOC6=O)cc5)O[C@@]4(C(=O)OCC#N)[C@@]3(C)C[C@H](O)[C@@]12F (stereo partly drawn) [Compound 37, Cyanomethyl (2S,6aS,6bR,7S,8aS,8bS,11aR,12aS,12bS)-2,6b-difluoro-7-hydroxy-6a,8a-dimethyl-4-oxo-10-(4-( ((2-oxotetrahydrofuran-3-yl)thio)methyl)phenyl)-1,2,4,6a,6b,7,8,8a,11a,12,12a,12b-dodecahydro-8bH-naphtho[2',1':4,5]indeno[1,2-d][1,3]dioxole-8b-carboxylate] | pharmacological effects similar to those of compound 23 | significantly inhibited inflammatory cytokines in the skin of psoriasis model mice | significantly decreased PASI scores on day 7 | no significant changes in the thickness of the epidermal layer observed | pharmacokinetic properties similar to those of compound 8 | target selectivity comparable to that of compound 23 | significantly improved ocular abnormalities | – | – | – |
| C[C@]12C=CC(=O)C=C1[C@@H](F)C[C@H]1[C@@H]3C[C@H]4OC(c5ccc(CSC6CCOC6=O)cc5)O[C@@]4(C(=O)SCC#N)[C@@]3(C)C[C@H](O)[C@@]12F (stereo partly drawn) [Compound 35, S-(Cyanomethyl) (2S,6aS,6bR,7S,8aS,8bS,11aR,12aS,12bS)-2,6b-difluoro-7-hydroxy-6a,8a-dimethyl-4-oxo-10-(4-( ((2-oxotetrahydrofuran-3-yl)thio)methyl)phenyl)-1,2,4,6a,6b,7,8,8a,11a,12,12a,12b-dodecahydro-8bH-naphtho[2',1':4,5]indeno[1,2-d][1,3]dioxole-8b-carbothioate] | pharmacological effects similar to those of compound 23 | significantly inhibited inflammatory cytokines in the skin of psoriasis model mice | significantly decreased PASI scores on day 7 | no significant changes in the thickness of the epidermal layer observed | pharmacokinetic properties similar to those of compound 8 | – | significantly improved ocular abnormalities | > 50 | > 2.4×10^5 | – |
| C[C@]12C=CC(=O)C=C1CC[C@H]1[C@@H]3C[C@H]4OC(c5ccc(CSC6COC(=O)C6)cc5)O[C@@]4(C(=O)CO)[C@@]3(C)C[C@H](O)[C@@]12Cl (stereo partly drawn) [Compound 26, (6aS,6bR,7S,8aS,8bS,11aR,12aS,12bS)-6b-Chloro-7-hydroxy-8b-(2-hydroxyacetyl)-6a,8a-dimethyl-10-(4-(((5-oxotetrahydrofuran-3-yl)thio)methyl)phenyl)-1,2,6a,6b,7,8,8a,8b,11a,12,12a,12b-do decahydro-4H-naphtho[2',1':4,5]indeno[1,2-d][1,3]dioxol-4-one] | pharmacological effects similar to those of compound 23 | significantly inhibited inflammatory cytokines in the skin of psoriasis model mice | significantly decreased PASI scores on day 7 | no significant changes in the thickness of the epidermal layer observed | pharmacokinetic properties similar to those of compound 8 | target selectivity comparable to that of compound 23 | significantly improved the ocular abnormalities and reduced the ocular pathological score | – | – | 7.6 ± 0.5 |
| C[C@]12C=CC(=O)C=C1CC[C@H]1[C@@H]3C[C@H]4OC(c5ccc(COC6CCOC6=O)cc5)O[C@@]4(C(=O)CO)[C@@]3(C)C[C@H](O)[C@@]12Cl (stereo partly drawn) [Compound 22, (6aS,6bR,7S,8aS,8bS,11aR,12aS,12bS)-6b-Chloro-7-hydroxy-8b-(2-hydroxyacetyl)-6a,8a-dimethyl-10-(4-(((2-oxotetrahydrofuran-3-yl)oxy)methyl)phenyl)-1,2,6a,6b,7,8,8a,8b,11a,12,12a,12b-do decahydro-4H-naphtho[2',1':4,5]indeno[1,2-d][1,3]dioxol-4-one] | pharmacological effects similar to those of compound 23 | significantly inhibited inflammatory cytokines in the skin of psoriasis model mice | significantly decreased PASI scores on day 7 | no significant changes in the thickness of the epidermal layer observed | pharmacokinetic properties similar to those of compound 8 | – | significantly improved ocular abnormalities | > 50 | > 9.1×10^4 | – |
| C[C@]12C=CC(=O)C=C1CC[C@H]1[C@@H]3C[C@H]4OC(c5ccc(CNC6COC(=O)C6)cc5)O[C@@]4(C(=O)CO)[C@@]3(C)C[C@H](O)[C@@]12F (stereo partly drawn) [Compound 21, (6aS,6bR,7S,8aS,8bS,11aR,12aS,12bS)-6b-Fluoro-7-hydroxy-8b-(2-hydroxyacetyl)-6a,8a-dimethyl-10-(4-(((5-oxotetrahydrofuran-3-yl)amino)methyl)phenyl)-1,2,6a,6b,7,8,8a,8b,11a,12,12a,12b-dodecahydro-4H-naphtho[2',1':4,5]indeno[1,2-d][1,3]dioxol-4-one] | pharmacological effects similar to those of compound 23 | significantly inhibited inflammatory cytokines in the skin of psoriasis model mice | significantly decreased PASI scores on day 7 | no significant changes in the thickness of the epidermal layer observed | pharmacokinetic properties similar to those of compound 8 | target selectivity comparable to that of compound 23 | significantly improved ocular abnormalities | – | – | – |
| C[C@]12C=CC(=O)C=C1CC[C@H]1[C@@H]3C[C@H]4OC(c5ccc(CSC6CCOC6=O)nc5)O[C@@]4(C(=O)CO)[C@@]3(C)C[C@H](O)[C@@]12Cl (stereo partly drawn) [Compound 48, (6aS,6bR,7S,8aS,8bS,11aR,12aS,12bS)-6b-Chloro-7-hydroxy-8b-(2-hydroxyacetyl)-6a,8a-dimethyl-10-(6-(((2-oxotetrahydrofuran-3-yl)thio)methyl)pyridin-3-yl)-1,2,6a,6b,7,8,8a,8b,11a,12,12a,12 b-dodecahydro-4H-naphtho[2',1':4,5]indeno[1,2-d][1,3]dioxol-4-one] | pharmacological effects similar to those of compound 23 | significantly inhibited inflammatory cytokines in the skin of psoriasis model mice | significantly decreased PASI scores on day 7 | no significant changes in the thickness of the epidermal layer observed | pharmacokinetic properties similar to those of compound 8 | target selectivity comparable to that of compound 23 | significantly improved ocular abnormalities | – | – | – |
